This note sets out measurements from paper PMC8747035, “Design, Synthesis, and Biological Evaluation of 5,6,7,8-Tetrahydrobenzo[4,5]thieno[2,3-d]pyrimidines as Microtubule Targeting Agents” (Molecules, 2022).

The term EC50 denotes the concentration at which the effect is half-maximal. Higher therefore signals a less potent agent.

Entries after “also recorded” stand apart in the source; their conditions may differ. Read-outs that look alike come from different tables or passages of the source.

One test concerns A-10 cells. The test is described as follows: Cellular microtubule depolymerization in A-10 cells (immunofluorescence). The test is classed as cell-based. Particulars: for EC50: Rattus norvegicus, A10, 18 h, loss of 50% of interphase microtubules; for Microtubule depolymerization activity in A-10 cells: at a 10 µM concentration. The procedure:
(§1) We investigated the microtubule depolymerization and the antiproliferative activities of compounds 4–14 (Table 2). […] We next evaluated the importance of the 4′-OMe group of compound 4 by replacing it with an isosteric 4′-SMe (5). […] Clearly, this further substantiated the importance of an S in the scaffold over an NH.
The effects of the compounds on cellular microtubules were evaluated in A-10 cells using indirect immunofluorescence microscopy. These cells were obtained from the American Type Culture Collection (ATCC) (Manassas, VA, USA). Cells were treated with the compounds of interest for 18 h, and the cells fixed with cold MeOH and microtubule structures were visualized using a β-tubulin antibody (Sigma-Aldrich, St. Louis, MO, USA). The concentration that caused loss of 50% of the interphase microtubules was defined as the EC50 and calculated as previously described. These values represent an average of at least three independent experiments.

In a further test the test system is MDA-MB-435 cells. The test can be described thus: Antiproliferative SRB assay in MDA-MB-435 cells. Type of test: cell-based, human. To be noted: read-out: IC50 ± SD in MDA-435 Cells. The procedure:
as §1
(§2) The antiproliferative and cytotoxic effects of the compounds in cancer cells were evaluated using the SRB assay as previously described. MDA-MB-435 cells were obtained from the Lombardi Cancer Center of Georgetown University (Washington, DC, USA). SK-OV-3 and HeLa cells were purchased from ATCC. Details about the generation of the SK-OV-3 MDR1-M6/6 and HeLa WTβIII cells were described previously. The IC50 values represent an average of three independent experiments, each conducted using triplicate points.
(§3) HeLa, A-10, SK-OV-3, and SK-OV-3 MDR1-M6/6 cells were grown in Basal Medium Eagle (Sigma-Aldrich, St. Louis, MO, USA) supplemented with 10% FBS (Hyclone, GE Life Sciences, Logan, UT, USA) 1% GlutaMAX (Gibco, Life Technologies, Waltham, MA, USA) and 50 µg/mL gentamycin (Life Technologies, USA). HeLa WTβIII cells were grown in Dulbecco’s Modified Eagle Medium (Life Technologies) supplemented with 10% FBS and 50 µg/mL gentamycin. MDA-MB-435 cells were maintained in Improved Minimum Essential Medium (Life Technologies) supplemented with 10% FBS and 25 µg/mL gentamycin. All cells were grown at 37 °C in a humidified environment with 5% CO2.

For a further test, the system named is Bovine brain tubulin. The test is described as follows: Inhibition of purified tubulin assembly (turbidity). Particulars: 10 µM tubulin, 30 °C; read-out: Inhibition of Tubulin Assembly IC50 ± SD. Type of test: biochemical. As to the method: (§4) Bovine brain tubulin was purified as described previously. The tubulin assembly assay has been described in detail. Briefly, 1.0 mg/mL of tubulin (10 µM) was preincubated for 15 min at 30 °C in 0.8 M monosodium glutamate (pH of 2 M stock solution adjusted to 6.6 with HCl), varying compound concentrations and 4% (v/v) DMSO as compound solvent. After the preincubation, the reaction mixtures were placed on ice and 0.4 mM GTP was added. The reaction mixtures were transferred to cuvettes at 0 °C in a recording spectrophotometer equipped with an electronic temperature controller. After baselines were established, the temperature was elevated over about 30 s to 30 °C, and changes in turbidity were monitored at 350 nm for 20 min. The compound concentration that caused a 50% reduction in increase in turbidity, interpolated from the values obtained with defined compound concentrations, was defined as the IC50 value. The assay to measure inhibition of [^3H]colchicine binding was described in detail previously. Briefly, 0.1 mg/mL (1.0 µM) tubulin was incubated at 37 °C with 5.0 µM [3H]colchicine and potential inhibitors at 5.0 µM. Incubation was for 10 min, at which point the reaction had reached 40–60% of the maximum colchicine that can be bound in reaction mixtures without inhibitor. The [^3H]colchicine was a product of PerkinElmer, USA. CA-4 was a generous gift of Dr. G. R. Pettit, Arizona State University.

The next test concerns HeLa cells. The test is described as follows: SRB assay in HeLa cells. The test is classed as cell-based. Particulars: Homo sapiens, read-out: IC50 ± SD in HeLa. The procedure: (§5) Compounds 4–8, 10, 12, and 13 were evaluated for their abilities to overcome βIII-tubulin mediated drug resistance using an isogenic HeLa cell line pair (Table 4). […] The Rr values (Table 4) were calculated by dividing the IC50 of the βIII-tubulin expressing line by the IC50 obtained in the parental HeLa cells.
as §2, §3
A general note: Sulforhodamine B stains cellular protein and so reports cell mass.

For a further test, the system named is HeLa WTβIII cells. The test is described as follows: SRB assay in βIII-tubulin expressing HeLa WTβIII cells. To be noted: Homo sapiens, read-out: IC50 ± SD in HeLa WTβ3. Type of test: cell-based. As to the method:
as §5, §2, §3

For another test, the system named is SK-OV-3 cells. The test is described as follows: SRB assay in SK-OV-3 cells. Particulars: Homo sapiens, read-out: IC50 ± SD in SK-OV-3 Cells. Type of test: cell-based. As to the method:
(§6) Comparison of the IC50 values in the parental SK-OV-3 and genetically manipulated SK-OV-3 MDR1-M6/6 cell line allows for the calculation of a relative resistance value, designated Rr. This value is calculated by dividing the IC50 value obtained in the Pgp-expressing SK-OV-3 MDR1-M6/6 cells by the IC50 obtained in the parental SK-OV-3 cells.
as §2, §3

For a further test, the system named is SK-OV-3 MDR1-M6/6 cells. The test can be described thus: SRB assay in Pgp-expressing SK-OV-3 MDR1-M6/6 cells. The test is classed as cell-based. To be noted: Homo sapiens, SKOV3-MDR1-M6/6, read-out: IC50 ± SD in SK-OV-3 MDR1-M6/6 Cells. The procedure:
as §6, §2, §3

For a further test, the system named is tubulin. The test is described as follows: Inhibition of [3H]colchicine binding to tubulin. Set-up: species or system Bovine. Particulars: compound at 5 μM, 5.0 µM [3H]colchicine, 1.0 µM tubulin. As to the method: as §4, with “Incubation was for 10 min, at which point the reaction had reached 40–60% of the maximum colchicine that can be bound in reaction mixtures without inhibitor.” left out, “USA.” for “USA. CA-4 was a generous gift of Dr. G. R. Pettit, Arizona State University.”

In the test on A-10 cells, `COc1ccc(/C=C\c2cc(OC)c(OC)c(OC)c2)cc1O` [CA-4, combretastatin A-4] gave an EC50 of 13 nM. Moreover, the IC50 with MDA-MB-435 cells (Homo sapiens) was determined as 3.4 ± 0.6 nM; with Bovine brain tubulin, 1000 ± 90 nM.
Consider `CSc1ccc(N(C)c2nc(N)nc3sc4c(c23)CCCC4)cc1` [Compound 5, N4-methyl-N4-(4-(methylthio)phenyl)-5,6,7,8-tetrahydrobenzo[4,5]thieno[2,3-d] pyrimidine-2,4-diamine], for which the IC50 in the test on HeLa cells was 64.3 ± 4.3 nM; in the test with HeLa WTβIII cells, 44.1 ± 4.8 nM; in the test on SK-OV-3 cells, 71.8 ± 5.3 nM; in the test on SK-OV-3 MDR1-M6/6 cells, 74.1 ± 11 nM; in the test on MDA-MB-435 cells (Homo sapiens), < 40 nM; in the test with MDA-MB-435 cells, 38.6 ± 5.6 nM. In the test with Bovine brain tubulin, the IC50 came to 490 ± 80 nM. This molecule also gave an EC50 with A-10 cells of 70 nM. The “Inhibition of Colchicine Binding (% inhibition ± SD)” value (“Inhibition … (% inhibition ± SD)” below) in the test with tubulin worked out at 94.0 ± 2.0%.
For the molecule `COc1ccc2c(c1)CCCN2c1nc(N)nc2sc3c(c12)CCCC3` [Compound 6, 4-(6-Methoxy-3,4-dihydroquinolin-1(2H)-yl)-5,6,7,8-tetrahydrobenzo[4,5]thieno[2,3-d]-pyrimidin-2-amine], the IC50 worked out at 123 ± 12 nM with HeLa cells; 80.3 ± 6.4 nM in the test with HeLa WTβIII cells; 92.5 ± 3.3 nM with SK-OV-3 cells; 91.7 ± 12 nM in the test with SK-OV-3 MDR1-M6/6 cells; 59.6 ± 11.8 nM in the test with MDA-MB-435 cells (Homo sapiens). In the test with A-10 cells, this molecule showed an EC50 of 121 nM.
Consider `COc1ccc(N(C)c2ncnc3sc4c(c23)CCCC4)cc1` [Compound 7, N-(4-methoxyphenyl)-N-methyl-5,6,7,8-tetrahydrobenzo[4,5]thieno[2,3-d]pyrimidin-4-amine], for which the IC50 in the test on HeLa cells is 57.2 ± 8.5 nM; with HeLa WTβIII cells, 38 ± 3.9 nM; in the test on SK-OV-3 cells, 37 ± 6.2 nM; in the test on SK-OV-3 MDR1-M6/6 cells it was 47.1 ± 7.6 nM; in the test with MDA-MB-435 cells (Homo sapiens) it was < 40 nM; in the test with MDA-MB-435 cells it was 36.8 ± 5.2 nM. Also, the IC50 in the test with Bovine brain tubulin turned out to be 490 ± 60 nM. The molecule also showed an EC50 with A-10 cells of 45 nM. The “Inhibition … (% inhibition ± SD)” value in the test on tubulin is on record as 95.0 ± 0.40%.
Regarding `COc1ccc(N(C)c2nc(C)nc3sc4c(c23)CCCC4)cc1` [Compound 8, N-(4-methoxyphenyl)-N,2-dimethyl-5,6,7,8-tetrahydrobenzo[4,5]thieno[2,3-d]pyrimidin-4-amine], the IC50 worked out at 87.9 ± 8.8 nM in the test with HeLa cells; 81.3 ± 5.2 nM in the test with HeLa WTβIII cells; 47.7 ± 1.2 nM with SK-OV-3 cells; 57.5 ± 0.5 nM with SK-OV-3 MDR1-M6/6 cells; 53 ± 0.3 nM in the test on MDA-MB-435 cells (Homo sapiens); 560 ± 90 nM in the test on Bovine brain tubulin. The same molecule gave an EC50 in the test on A-10 cells of 52 nM. Further, the “Inhibition … (% inhibition ± SD)” value with tubulin is reported as 96.0 ± 0.40%.
`COc1ccc(Nc2nc(C)nc3sc4c(c23)CCCC4)cc1` [Compound 9, N-(4-methoxyphenyl)-2-methyl-5,6,7,8-tetrahydrobenzo[4,5]thieno[2,3-d]pyrimidin-4-amine]: the “Microtubule depolymerization activity in A-10 cells” value in the test on A-10 cells was “did not show any activity; also recorded: Not MT active ^c”.
`CSc1ccc(N(C)c2nc(C)nc3sc4c(c23)CCCC4)cc1` [Compound 10, N,2-dimethyl-N-(4-(methylthio)phenyl)-5,6,7,8-tetrahydrobenzo[4,5]thieno[2,3-d]pyrimidin-4-amine]: the IC50 in the test on HeLa cells came out at 146 ± 14 nM; in the test on HeLa WTβIII cells it was 108 ± 8.6 nM; in the test with SK-OV-3 cells it was 136 ± 15 nM; in the test on SK-OV-3 MDR1-M6/6 cells, 209 ± 40 nM; with MDA-MB-435 cells (Homo sapiens), 87.7 ± 4.7 nM; in the test with Bovine brain tubulin, 540 ± 80 nM. The same molecule showed an EC50 in the test on A-10 cells of 157 nM. In the test with tubulin, the “Inhibition … (% inhibition ± SD)” value was determined as 89.0 ± 0.20%.
On to `CSc1ccc(Nc2nc(C)nc3sc4c(c23)CCCC4)cc1` [Compound 11, 2-Methyl-N-(4-(methylthio)phenyl)-5,6,7,8-tetrahydrobenzo[4,5]thieno[2,3-d]pyrimidin-4-amine], for which the “Microtubule depolymerization activity in A-10 cells” value in the test on A-10 cells is listed as “did not show any activity; also recorded: Not MT active ^c”.
For the molecule `COc1ccc2c(c1)CCCN2c1nc(C)nc2sc3c(c12)CCCC3` [Compound 12, 4-(6-Methoxy-3,4-dihydroquinolin-1(2H)-yl)-2-methyl-5,6,7,8-tetrahydrobenzo[4,5]thieno[2,3-d]pyrimidine], the IC50 was found to be 191 ± 8.1 nM with HeLa cells; 203 ± 12 nM in the test on HeLa WTβIII cells; 178 ± 1.1 nM with SK-OV-3 cells; 223 ± 9.4 nM in the test on SK-OV-3 MDR1-M6/6 cells; 125 ± 14 nM with MDA-MB-435 cells (Homo sapiens). In the test on A-10 cells, this molecule returned an EC50 of 150 nM.
Consider `COc1cccc2cc(N(C)c3nc(C)nc4sc5c(c34)CCCC5)ccc12` [Compound 13, N-(5-methoxynaphthalen-2-yl)-N,2-dimethyl-5,6,7,8-tetrahydrobenzo[4,5]thieno[2,3-d]pyrimidin-4-amine], for which the IC50 in the test on HeLa cells came out at 170 ± 34 nM; with HeLa WTβIII cells, 139 ± 20 nM; in the test with SK-OV-3 cells, 142 ± 22 nM; in the test on SK-OV-3 MDR1-M6/6 cells it was 143 ± 244 nM; with MDA-MB-435 cells (Homo sapiens), 81.3 ± 8.4 nM. The EC50 with A-10 cells turned out to be 118 nM.
In the case of `Cc1nc(Nc2ccc3c(O)cccc3c2)c2c3c(sc2n1)CCCC3` [Compound 14, 6-((2-Methyl-5,6,7,8-tetrahydrobenzo[4,5]thieno [2,3-d]pyrimidin-4-yl)amino)naphthalen-1-ol], in the test with A-10 cells, the “Microtubule depolymerization activity in A-10 cells” value is listed as “did not show any activity; also recorded: Not MT active ^c”.
